# Legend:
# Assay type in all cases: cell-based
# [1] = biological target: T1, TRPC5:C5 channels (hTRPC5) (Homo sapiens, UniProt Q9UL62); test: Excised outside-out patch-clamp, hTRPC5-expressing HEK (Tet+) T-REx cells
# T1 construct: expressed in transfected cells
# T1 sequence (Q9UL62 1-973): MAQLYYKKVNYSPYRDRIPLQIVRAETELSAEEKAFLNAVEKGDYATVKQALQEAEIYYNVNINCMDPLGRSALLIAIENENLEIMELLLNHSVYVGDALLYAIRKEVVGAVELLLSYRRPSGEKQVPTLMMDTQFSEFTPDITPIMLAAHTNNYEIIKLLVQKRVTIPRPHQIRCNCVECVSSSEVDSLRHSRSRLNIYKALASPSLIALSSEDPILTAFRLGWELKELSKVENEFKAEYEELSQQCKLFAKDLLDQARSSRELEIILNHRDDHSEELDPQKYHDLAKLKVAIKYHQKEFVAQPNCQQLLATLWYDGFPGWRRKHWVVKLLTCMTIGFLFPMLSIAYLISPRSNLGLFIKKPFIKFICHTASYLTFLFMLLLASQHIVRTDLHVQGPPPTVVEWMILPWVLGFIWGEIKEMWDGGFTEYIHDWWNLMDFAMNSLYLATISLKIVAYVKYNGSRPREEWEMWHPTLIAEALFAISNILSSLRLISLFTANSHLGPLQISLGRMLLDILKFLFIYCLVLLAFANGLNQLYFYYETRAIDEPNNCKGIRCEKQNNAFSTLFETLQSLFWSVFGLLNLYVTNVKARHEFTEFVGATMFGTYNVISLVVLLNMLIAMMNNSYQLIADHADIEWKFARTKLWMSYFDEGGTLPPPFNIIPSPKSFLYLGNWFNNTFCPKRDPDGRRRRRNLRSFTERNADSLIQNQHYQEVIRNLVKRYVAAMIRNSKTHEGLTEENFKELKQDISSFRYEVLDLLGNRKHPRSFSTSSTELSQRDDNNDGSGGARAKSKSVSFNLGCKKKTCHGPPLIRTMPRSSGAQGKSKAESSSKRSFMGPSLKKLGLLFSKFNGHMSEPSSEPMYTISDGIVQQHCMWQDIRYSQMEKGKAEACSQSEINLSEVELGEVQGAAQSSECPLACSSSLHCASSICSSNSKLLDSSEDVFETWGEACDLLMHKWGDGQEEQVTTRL
# Procedure: (§1) For electrophysiology experiments, cells were plated at a low density of 20–30% onto round or square glass coverslips (13 mm diameter or 5 × 5 mm), and TRPC expression in HEK T‐REx was induced with 1 μg·ml^−1 tetracycline 24 hr before experimentation. Experiments were carried out at room temperature. Extracellular solution consisted of SBS. Patch‐clamp recordings were performed in whole‐cell mode (Figure S7) and in excised outside‐out patch mode under voltage clamp at room temperature using 2–4 MΩ patch pipettes fabricated from borosilicate glass capillaries with an outside diameter of 1 mm and an inside diameter of 0.58 mm (Harvard Apparatus). The voltage protocol comprised voltage ramps applied from −100 to +100 mV every 10 s from a holding potential of 0 mV. The patch‐clamp currents were recorded using Axopatch 200B or HEKA EPC‐800 amplifiers, digitized by a Digidata 1440 or PCI6229 (National Instruments Japan, Tokyo, Japan) and recorded to a computer using pCLAMP10 (Molecular Devices) or WinWCPV4.5 (developed by Dr John Dempster, University of Strathclyde, UK). The data were filtered at 1 kHz and analysed offline using Clampfit 10.2 software or WinWCPV4.5 and Origin 9.1 software (OriginLab, Northampton, MA). The bath solution consisted of SBS and the pipette solution (intracellular solution) contained 145‐mM CsCl, 2‐mM MgCl2, 10‐mM HEPES, 1‐mM EGTA (free acid), 5‐mM ATP (sodium salt), and 0.1‐mM NaGTP, titrated to pH 7.2 with CsOH. All solutions were filtered using a 0.2 μm filter (Sartorius, UK). Comparisons of peak current sizes mediated by EA‐activated TRPC1/4/5 channels in whole cells and excised outside‐out patches are provided in Figure S12.
# TRPM2 = biological target: T2, TRPM2 (Homo sapiens, UniProt O94759); test: [Ca2+]i selectivity assay, (Tet+) HEK T-REx cells expressing TRPM2, H2O2 activation; conditions: 300 nM AM237; 1 mM H2O2
# T2 construct: expressed in transfected cells
# T2 sequence (O94759 whole entry): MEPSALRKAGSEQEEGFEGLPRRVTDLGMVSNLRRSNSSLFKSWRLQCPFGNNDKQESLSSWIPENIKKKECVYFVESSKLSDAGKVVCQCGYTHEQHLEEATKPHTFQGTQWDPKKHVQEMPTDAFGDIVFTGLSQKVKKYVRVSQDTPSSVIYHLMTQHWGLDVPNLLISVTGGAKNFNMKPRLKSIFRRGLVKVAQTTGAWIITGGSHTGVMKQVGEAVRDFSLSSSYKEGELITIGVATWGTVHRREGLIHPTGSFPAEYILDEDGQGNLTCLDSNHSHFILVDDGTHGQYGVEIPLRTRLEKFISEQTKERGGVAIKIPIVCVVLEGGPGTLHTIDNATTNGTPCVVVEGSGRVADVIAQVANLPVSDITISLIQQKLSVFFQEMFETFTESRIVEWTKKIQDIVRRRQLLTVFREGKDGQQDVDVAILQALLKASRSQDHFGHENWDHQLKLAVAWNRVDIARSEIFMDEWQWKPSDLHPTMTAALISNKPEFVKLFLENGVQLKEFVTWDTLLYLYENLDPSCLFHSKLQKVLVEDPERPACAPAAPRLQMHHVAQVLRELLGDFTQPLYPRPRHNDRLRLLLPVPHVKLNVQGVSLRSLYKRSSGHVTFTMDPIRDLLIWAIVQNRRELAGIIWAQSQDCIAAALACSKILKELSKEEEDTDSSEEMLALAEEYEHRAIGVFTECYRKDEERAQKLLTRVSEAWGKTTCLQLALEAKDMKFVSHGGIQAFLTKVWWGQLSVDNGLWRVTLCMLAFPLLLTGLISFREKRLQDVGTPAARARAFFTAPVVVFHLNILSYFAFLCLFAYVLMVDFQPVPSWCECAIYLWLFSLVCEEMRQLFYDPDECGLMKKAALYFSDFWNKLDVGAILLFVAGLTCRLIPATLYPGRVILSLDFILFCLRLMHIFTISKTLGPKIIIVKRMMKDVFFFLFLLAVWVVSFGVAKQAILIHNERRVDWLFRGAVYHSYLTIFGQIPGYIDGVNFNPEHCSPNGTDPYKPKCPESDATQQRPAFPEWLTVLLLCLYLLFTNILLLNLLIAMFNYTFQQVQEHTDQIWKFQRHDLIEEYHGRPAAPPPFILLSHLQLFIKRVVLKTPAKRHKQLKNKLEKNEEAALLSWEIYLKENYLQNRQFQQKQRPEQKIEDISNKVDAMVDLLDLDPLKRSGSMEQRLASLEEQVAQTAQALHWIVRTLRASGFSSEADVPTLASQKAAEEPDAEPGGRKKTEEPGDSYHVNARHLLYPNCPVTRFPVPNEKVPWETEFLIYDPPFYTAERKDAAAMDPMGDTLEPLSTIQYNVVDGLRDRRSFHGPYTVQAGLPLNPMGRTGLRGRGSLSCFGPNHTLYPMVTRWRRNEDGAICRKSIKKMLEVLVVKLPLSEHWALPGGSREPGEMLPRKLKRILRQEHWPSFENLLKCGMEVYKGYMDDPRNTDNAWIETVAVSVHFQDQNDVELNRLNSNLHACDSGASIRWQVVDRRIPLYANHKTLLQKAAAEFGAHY
# TRPC4 channels = biological target: T3, TRPC4 channels (Homo sapiens, UniProt Q9UBN4); test: Excised outside-out patch-clamp, HEK 293 cells transiently expressing hTRPC4; conditions: 30 nM EA; at 3 to 100 nM AM237
# T3 construct: expressed in transfected cells; host or cells: HEK 293 (transient)
# T3 sequence (Q9UBN4 1-977): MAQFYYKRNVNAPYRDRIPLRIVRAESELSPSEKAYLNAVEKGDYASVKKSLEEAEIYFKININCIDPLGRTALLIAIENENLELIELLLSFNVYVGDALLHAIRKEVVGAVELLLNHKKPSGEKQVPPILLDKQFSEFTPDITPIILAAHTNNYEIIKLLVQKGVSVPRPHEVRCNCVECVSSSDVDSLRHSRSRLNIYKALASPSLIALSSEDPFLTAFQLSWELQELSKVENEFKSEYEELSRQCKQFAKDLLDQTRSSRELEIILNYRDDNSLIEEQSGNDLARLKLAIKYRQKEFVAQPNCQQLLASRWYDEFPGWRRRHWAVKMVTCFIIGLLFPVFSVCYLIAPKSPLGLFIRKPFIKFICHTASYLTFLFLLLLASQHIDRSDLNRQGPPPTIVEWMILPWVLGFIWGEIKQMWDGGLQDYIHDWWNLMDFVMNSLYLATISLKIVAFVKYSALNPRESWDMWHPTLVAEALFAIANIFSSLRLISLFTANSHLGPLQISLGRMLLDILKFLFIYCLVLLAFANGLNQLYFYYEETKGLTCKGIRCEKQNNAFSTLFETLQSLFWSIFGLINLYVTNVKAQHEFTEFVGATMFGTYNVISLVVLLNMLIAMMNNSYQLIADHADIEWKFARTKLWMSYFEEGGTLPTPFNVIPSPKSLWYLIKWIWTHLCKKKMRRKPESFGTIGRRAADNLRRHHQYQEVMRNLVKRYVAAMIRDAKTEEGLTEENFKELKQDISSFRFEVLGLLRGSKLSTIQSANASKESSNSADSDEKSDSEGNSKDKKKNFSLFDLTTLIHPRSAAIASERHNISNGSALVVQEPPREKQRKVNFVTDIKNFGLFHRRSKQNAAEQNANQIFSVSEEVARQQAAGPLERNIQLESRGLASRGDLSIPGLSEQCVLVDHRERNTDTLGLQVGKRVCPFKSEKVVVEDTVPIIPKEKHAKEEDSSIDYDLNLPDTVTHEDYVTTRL
# Procedure: as §1, with “The bath solution consisted of SBS and the pipette solution (intracellular solution) contained 145‐mM CsCl, 2‐mM MgCl2, 10‐mM HEPES, 1‐mM EGTA (free acid), 5‐mM ATP (sodium salt), and 0.1‐mM NaGTP, titrated to pH 7.2 with CsOH. All solutions were filtered using a 0.2 μm filter (Sartorius, UK). Comparisons of peak current sizes mediated by EA‐activated TRPC1/4/5 channels in whole cells and excised outside‐out patches are provided in Figure S12.” left out
compound,measurement,setting,value
Cn1c(=O)n(CCCO)c(=O)c2c1nc(Oc1ccc(Cl)c(OC(F)(F)F)c1)n2Cc1ccc(Cl)cc1 [AM237],Effect on inward and outward currents induced by EA,"[1]; 30 nM EA, outside-out patch",partially suppressed
same,Amplitude of outward current response compared to response induced by 30-nM EA,"[1]; +100 mV, outside-out patch",up to 45%
same,Amplitude of inward current response compared to response induced by 30-nM EA,"[1]; -100 mV, outside-out patch",up to 25%
same,Concentration giving peak current,"[1]; in the presence of 1- and 3-nM Pico145, decreasing at 300 nM and 1 μM",100 nM
same,Concentration giving maximum current response,"[1]; no Pico145, lower responses at 100 nM",30 nM
same,Activation or inhibition of TRPM2,TRPM2,no activation or inhibition
same,Inhibition of currents induced by EA,TRPC4 channels,full inhibition
